Converted amounts (≈) assume the structure as drawn. Like-named read-outs stand apart in the source and are kept apart here. Peptide text beside a SMILES is read from it. * marks the point of attachment. βNA = c1ccc2cc(N*)ccc2c1
Columns and labels:
[1] = Storage stability checked by HPLC-MS; format: physicochemical; details: for stability of stock solutions in DMSO: kept in the cold; for time after synthesis without signs of decomposition: stored at −20 °C under an inert atmosphere, HPLC-MS
Protocol: Compounds 1a and 1b were prepared as previously reported, from the interaction of TMP with aldehydes and isocyanides in acetonitrile under Yb(OTf)3 catalysis. The compounds were purified by chromatography and stored at −20 °C under an inert atmosphere. Stock solutions in DMSO were stable when kept in the cold. The integrity of these compounds and solutions thereof was confirmed by HPLC-MS (column: ZORBAX Extend-C18 3.5 μm 2.1 × 50 mm, Agilent; mobile phase A: H2O + 0.05% HCOOH; mobile phase B: ACN + 0.05% HCOOH; 10 min; 35 °C). There were no signs of decomposition at least 1 year after their chemical synthesis.

[2] = tested on: Serratia marcescens NIMA; assay: MIC by microdilution (EUCAST), planktonic bacteria; format: cell-based; details: tested alone
Protocol: (§1) The minimum inhibitory concentrations (MICs) of colistin, TMP, 1a, and 1b were determined using the microdilution method, according to EUCAST recommendations.

[3] = tested on: Escherichia coli ATCC 25922; design: method as in PMID 31334221; details: tested alone; cited from earlier work
[4] = Cytotoxicity assay (resazurin); format: cell-based, human; details: human, HepG2 cells; 32 μg/mL, 24 h; percentage of dead cells
Protocol: (§2) The cytotoxicity assay was carried out in the human hepatocellular carcinoma cell line Hep G2 ATCC and in murine L-929 fibroblasts (NCTC clone 929, ECACC 88102702), based on the experiments described by Vinuesa et al.. The cells were obtained from Dr. Ricardo Pérez-Tomás (Cancer Cell Biology, University of Barcelona). The cytotoxicity of TMP and compounds 1a and 1b was determined by measuring the intracellular reduction of resazurin sodium salt (Sigma-Aldrich, St. Louis, MO, USA). HepG2 and L-929 cells were grown in RPMI 1640 and MEM medium, respectively (Biochrom AG, Berlin, Germany), supplemented with 10% fetal bovine serum. Cells from pre-confluent cultures were harvested with trypsin-EDTA and maintained at 37 °C and 5% CO2. […] Twenty µL of resazurin was then added to each well and the plates were incubated under the same conditions. Fluorescence was measured at an excitation wavelength of 530 nm and an emission wavelength of 590 nm using a scanning multi-well spectrophotometer (FLUOstar OPTIMA, BMG Labtech, Germany). Cytotoxicity was calculated as follows:(1) % Cytotoxicity = 100−(AT−ADB)/(AC−AMB) ×100 where AT is the absorbance of the treated cells, ADB the absorbance of the drug blank control, AC the absorbance of the untreated cells, and ACB the absorbance of the medium blank.

[5] = tested on: HepG2 cells; assay: Cytotoxicity assay (resazurin); format: cell-based, human
Protocol: as §2

[6] = tested on: S. epidermidis 220560752; assay: Susceptibility test in TMP-resistant strain; format: cell-based; details: data not shown
Protocol: as §1

[7] = tested on: E. coli 220560529; assay: Susceptibility test in TMP-resistant strain; format: cell-based; details: data not shown
Protocol: as §1

[8] = target: T1, E. coli DHFR (Escherichia coli, UniProt P0ABQ4); assay: Dihydrofolate reductase assay; format: biochemical; details: inhibitor 5 µM, 30 min incubation
T1 construct: gift of E. Shakhnovich and J.V. Rodrigues (Harvard University)
T1 sequence (P0ABQ4 whole entry): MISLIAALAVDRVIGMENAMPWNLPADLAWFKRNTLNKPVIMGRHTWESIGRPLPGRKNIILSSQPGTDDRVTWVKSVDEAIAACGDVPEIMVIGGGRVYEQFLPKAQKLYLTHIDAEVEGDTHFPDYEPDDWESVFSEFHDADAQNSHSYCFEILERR
Protocol: The DHFR assay is based on the reduction of 7,8-dihydrofolate to 5,6,7,8-tetrahydrofolate catalyzed by DHFR and using NADPH as a cofactor. Purified E. coli DHFR was kindly provided by E. Shakhnovich and J.V. Rodrigues (Harvard University, Cambridge, MA, USA). The DHFR assay kit (CS0340) was purchased from Sigma-Aldrich. The assay was performed in 96-well flat-bottom plates (Corning Costar 3606, NY, USA) with the protocol adjusted to accommodate a final reaction volume of 200 µL. DHFR was diluted to a final concentration of 0.03 µg/mL. The inhibitory effect of compounds 1a and 1b was tested, with TMP serving as the control. All three drugs were used at a concentration of 5 µM, which was higher than the respective MICs (Table 1). To determine the effect of the concentration of the DHFR cofactor NADPH on inhibition, a dilution series of NADPH in assay buffer was carried out to obtain a concentration range between 60 µM and 240 µM. A dilution series of H2F was similarly carried out in assay buffer to obtain a concentration range from 50 µM to 200 µM. In all assays, the enzyme was mixed with the different inhibitors and incubated for 30 min before the enzymatic reaction was initiated by the addition of NADPH and H2F. The reaction was conducted at 37 °C and monitored by the decrease in absorbance at 340 nm (indicative of a decrease in the NADPH concentration). […]

[9] = Cytotoxicity assay (resazurin); format: cell-based, murine; details: mouse, L-929 fibroblasts; 32 μg/mL, 24 h; percentage of dead cells
Protocol: as §2

[10] = tested on: L-929 cells; assay: Cytotoxicity assay (resazurin); format: cell-based, murine
Protocol: as §2

[11] = tested on: S. marcescens NIMA; assay: Real-time growth curves with sublethal concentrations; format: cell-based; details: with SMX (1:20), in the presence of colistin
Protocol: (§3) Additionally, the effect of TMP-SMX and the GBBR analogues in combination with sublethal concentrations of colistin was assessed in growth curves of E. coli ATCC 25922, P. aeruginosa PAO1, and S. marcescens NIMA. Exponential-phase cultures were adjusted to 5 × 10^6 CFU/mL in a final volume of 10 mL of TSB and the antimicrobials were added at sublethal concentrations. Growth was monitored using RTS-1C real-time cell growth loggers (Biosan SIA, Riga, Latvia) in cells incubated for 24 h at 37 °C with shaking at 2000 rpm. Growth was measured every 10 min as the optical density (OD 850 nm).

[12] = tested on: Pseudomonas aeruginosa PAO1; design: method as in PMID 31334221; details: tested alone; cited from earlier work
[13] = tested on: bacterial growth; design: method as in PMID 23722434; details: concentrations up to 40 µg/mL; cited from earlier work
[14] = tested on: E. coli ATCC 25922; assay: Real-time growth curves with sublethal concentrations; format: cell-based; details: 0.11 µM colistin alone
Protocol: as §3

[15] = tested on: P. aeruginosa PAO1; assay: as above; format: cell-based; details: 0.87 µM colistin alone
Protocol: as §3

[16] = tested on: P. aeruginosa PAO1; assay: MIC in presence or absence of efflux pump inhibitor PAßN; format: cell-based; details: colistin alone
Protocol: The efflux pump inhibitor phenyl-arginyl-β-naphthylamide (PaβN) was purchased from Sigma-Aldrich Chemicals (Madrid, Spain). The MIC of the TMP analogues in combination with SMX in the presence of 20 µg PaβN/mL was determined in P. aeruginosa PAO1 using the microdilution method.

[17] = Homo sapiens, HepG2, 24 h, read-out: IC50 (drug concentration needed to inhibit cell growth by 50%)
[18] = Mus musculus, L929, 24 h, read-out: IC50 (drug concentration needed to inhibit cell growth by 50%)

Compound	stability of stock solutions in DMSO [1]	time after synthesis without signs of decomposition [1]	MIC ([2]; Serratia marcescens) [µM]	MIC [3] [µM]	cytotoxicity at 24 h, 32 μg/mL [4] [%]	IC50 [5, 17] [mg/L]	effect in TMP-resistant strain [6]	effect in TMP-resistant strain [7]	inhibition at 5 µM [8] [%]	cytotoxicity at 24 h, 32 μg/mL [9] [%]	IC50 [10, 18] [mg/L]	MIC [12] [µM]	further results
COc1cc(Cc2cn3c(NC4CCCCC4)c(-c4cccnc4)nc3nc2N)cc(OC)c1OC [Compound 1b]	stable	at least 1 year	16.4 (≈ 8 µg/mL)	1.02 (≈ 0.498 µg/mL)	0.11	> 32	no significant effect	no significant effect	> 80	0	> 32	>65.50	effect on growth curve [11]: complete abolition of growth
NC(N)=NCCC[C@H](NC(=O)[C@@H](N)Cc1ccccc1)C(=O)Nc1ccc2ccccc2c1 [PAßN, phenylalanine arginyl ß-naphthylamide] (H-Phe-Arg-βNA)													effect on bacterial growth [13]: no detectable effect on bacterial growth
COc1cc(Cc2cn3c(NC(C)(C)C)c(C)nc3nc2N)cc(OC)c1OC [Compound 1a]	stable	at least 1 year	80.1 (≈ 32 µg/mL)	1.25 (≈ 0.499 µg/mL)		> 32	no significant effect	no significant effect	> 80	0	> 32	>80.10	
COc1cc(Cc2cnc(N)nc2N)cc(OC)c1OC [TMP, Trimethoprim]			13.8 (≈ 4 µg/mL)	0.43 (≈ 0.125 µg/mL)	0.35					0.8		>110.22	IC50 ([5]; Homo sapiens, HepG2, 24 h; read-out: IC50 (drug concentration needed to inhibit cell growth by 50%)): > 32 mg/L; IC50 ([10]; Mus musculus, L929, 24 h; read-out: IC50 (drug concentration needed to inhibit cell growth by 50%)): > 32 mg/L
colistin				0.43								1.73	MIC [2]: >886.23 µM; delay in growth [14]: 10 h; delay in growth [15]: 2 h; MIC With PAßN ([16]; PAßN 20 µg/mL): 1.73 µM; MIC Without PAßN [16]: 1.73 µM

Reference: paper PMC8231229, “New Trimethoprim-Like Molecules: Bacteriological Evaluation and Insights into Their Action” (Antibiotics, 2021)
